These are literature values, as cited in patent publication US6344444B1 (Nutrition 21, priority 1997, dated 2002).

Data set [1] deals with cholesterol-induced intimal hyperplasia. The settings on record: rabbits, injection or ingestion.
The next data set deals with femoral density. As to conditions: postmenopausal women, injection 50 mg twice weekly, over 14 months.
In another data set the test system is bone turnover. As to conditions: ovariectomized rats, oral.

With `NCCCC[C@H](N)C(=O)O.O[Si](O)(O)O` [lysine silicate], the “intimal thickening and fragmentation of arterial elastic fibers” value in data set [1] is on record as “prevented”.
For `C[Si](O)(O)O` [monomethyltrisilanol], in the data set on femoral density, the “increase of femoral density (average)” value was 4.7%. Moreover, the “intimal thickening and fragmentation of arterial elastic fibers” value in data set [1] is on record as “prevented”.
For the compound orthosilicic acid, in the data set with bone turnover, the bone formation rate entry is given as “increased” and the bone turnover entry is on record as “slowed”.
